Literature values as cited in article PMC3983144 (Bioconjugate chemistry, 2014).
Square brackets hold non-standard residues; d marks the D form. Nle = CCCC[C@H](N)C(=O)O

Test system: MC1R
Conditions: B16F1 melanoma cells

- IC50: 0.27 nM
Substance: Ac-[Nle]DH[dF]RWGK-NH2 [NAPamide]
